# According to patent US20200078323A1, “METHOD OF TREATING OVARIAN CANCER USING ZETA-STAT” (University of South Florida, priority 2018, published 2020):
# Entries after “also recorded” stand apart in the source; their conditions may differ.
# Experiments:
# TOV21G cells = assay: Proliferation of TOV21G cells treated with ζ-Stat (cellometer count, WST-1); assay type: cell-based; settings: 24, 48 and 72 hours, control DMSO
# Method: FIGS. 1A-1C. Proliferation curves for TOV21G cells treated with ζ-Stat. TOV21G cells were treated with ζ-Stat for 24, 48, and 72 hours. The control cells were treated with DMSO. (FIG. 1A) Treatments counted on a cellometer. (FIG. 1B) Standard curve for TOV21G cells in WST-1 reagent. (FIG. 1C) Treatments after 72 hours measured using WST-1 reagent.
# (§1) Ovarian cancer is the most lethal gynecological cancer. […] The most common ovarian cancer diagnosis is epithelial ovarian carcinomas, which constitute for 85-90% of prognosis. Of epithelial ovarian carcinomas, clear cell ovarian carcinoma (CCOC) represents 5% of incidence. CCOC presents unique pathological features and has a high reoccurrence rate after treatment. An overexpression of atypical PKCs (PKC-ζ and PKC-ι/λ) has been observed in various malignant cell lines and is linked to pathways for cellular proliferation and invasion. Ovarian cell lines (TOV21G and ES-2) were treated with the atypical PKC-ζ inhibitor ζ-Stat (8-hydroxynaphthalene-1,3,6-trisulfonic acid) and assayed to determine the effects on proliferation and cellular invasion. […] Tumor growth in athymic female mice is decreased when treated with ζ-Stat and the mouse body weight is maintained. Thus, PKC-ζ is identified herein as a novel target in carcinogenesis and inhibition of this protein decreases the rate of proliferation.
# PKC-ι = target: T1, PKC-ι (Homo sapiens, UniProt P41743); assay: Protein expression of PKC-ι in TOV21G and ES-2 cells; assay type: cell-based; settings: protein and genomic studies
# T1 construct: endogenous in cells; host or cells: TOV21G and ES-2 cells
# T1 sequence (P41743 1-596): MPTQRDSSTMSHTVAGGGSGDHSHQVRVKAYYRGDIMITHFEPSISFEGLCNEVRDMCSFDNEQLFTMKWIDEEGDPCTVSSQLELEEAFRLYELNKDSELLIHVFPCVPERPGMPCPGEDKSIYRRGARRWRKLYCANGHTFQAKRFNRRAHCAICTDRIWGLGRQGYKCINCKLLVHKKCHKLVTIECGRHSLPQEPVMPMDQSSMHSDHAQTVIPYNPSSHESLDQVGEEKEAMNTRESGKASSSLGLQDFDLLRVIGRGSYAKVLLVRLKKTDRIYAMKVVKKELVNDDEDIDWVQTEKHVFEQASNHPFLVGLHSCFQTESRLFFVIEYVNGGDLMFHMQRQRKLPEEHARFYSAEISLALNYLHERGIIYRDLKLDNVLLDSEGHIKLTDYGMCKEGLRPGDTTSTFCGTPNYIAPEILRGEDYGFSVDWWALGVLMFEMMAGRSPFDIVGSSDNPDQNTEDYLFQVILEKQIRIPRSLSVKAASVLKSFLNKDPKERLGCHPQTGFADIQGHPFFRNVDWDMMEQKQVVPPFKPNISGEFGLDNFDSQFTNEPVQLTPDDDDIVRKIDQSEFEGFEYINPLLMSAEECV
# Method: (§2) FIGS. 3A-3B. Protein expression of […] and […] of TOV21G and ES-2 cells when treated for 24, 48, and 72 hours with DMSO, ICA-1, and ζ-Stat. (FIG. 3A) TOV21G protein expression levels with treatments and quantified N=3. (FIG. 3B) ES-2 protein expression levels with treatments and quantified N=3.
# PKC-ζ = target: T2, PKC-ζ (Homo sapiens, UniProt Q05513); assay: Protein expression of PKC-ζ in TOV21G and ES-2 cells; assay type: cell-based; settings: protein and genomic studies
# T2 construct: Protein expression of PKC-ζ and RhoA of TOV21G and ES-2 cells when treated for 72 hours with DMSO and ζ-Stat; endogenous in cells; host or cells: TOV21G and ES-2 cells
# T2 sequence (Q05513 1-592): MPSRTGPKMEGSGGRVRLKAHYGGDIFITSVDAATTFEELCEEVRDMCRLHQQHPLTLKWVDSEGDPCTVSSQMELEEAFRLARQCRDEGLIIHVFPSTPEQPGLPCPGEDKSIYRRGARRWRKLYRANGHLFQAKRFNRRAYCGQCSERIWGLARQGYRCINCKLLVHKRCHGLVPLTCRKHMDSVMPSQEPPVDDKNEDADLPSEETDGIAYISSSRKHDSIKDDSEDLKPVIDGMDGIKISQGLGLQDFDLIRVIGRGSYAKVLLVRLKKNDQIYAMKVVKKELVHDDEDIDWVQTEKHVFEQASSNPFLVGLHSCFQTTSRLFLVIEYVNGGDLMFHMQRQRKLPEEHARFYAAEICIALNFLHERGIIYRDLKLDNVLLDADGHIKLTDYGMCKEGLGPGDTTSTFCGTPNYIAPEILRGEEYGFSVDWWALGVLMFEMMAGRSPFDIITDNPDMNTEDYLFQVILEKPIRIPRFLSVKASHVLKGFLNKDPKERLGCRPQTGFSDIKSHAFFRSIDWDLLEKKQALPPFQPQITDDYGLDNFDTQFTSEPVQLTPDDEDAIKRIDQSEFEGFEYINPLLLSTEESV
# Method: as §2
# (§3) FIGS. 4A-4B. Protein expression of PKC-ζ and RhoA of TOV21G and ES-2 cells when treated for 72 hours with DMSO and ζ-Stat and genomic expression of RhoA in TOV21G. (FIG. 4A) TOV21G and ES-2 protein expression after 72 hours of treatment. (FIG. 4B) TOV21G genomic expression of RhoA with ζ-Stat treatment after 72 hours of treatment.
# RhoA = assay: Protein and genomic expression of RhoA in TOV21G cells; assay type: cell-based; settings: 72 hours
# Method: as §3
# CCOC cells = assay: Wound healing / cellular invasion of CCOC cells; assay type: cell-based
# From the text: as §1
# [1] = Toxicity and body weight in xenograph mice (enzyme panel, body weight); assay type: in vivo
# Method: (§4) FIGS. 5A-5C. In-vivo TOV21G xenographs treated with 1×DPBS (vehicle, N=6) and 20 mg/kg ζ-Stat (N=6) for 30 days. (FIG. 5A) Tumor growth (mm^3) for the control mice and the treatment mice. The graph at the bottom represents the average body weight of the mice throughout the treatment period. (FIG. 5B) Tumors extracted at the endpoint of the experiment. The graph below represents the size of tumors from the treatment group represented as the percentage of the control. (FIG. 5C) Enzyme panel tested after the endpoint of the experiment. The bars represent glucose, BUN, ALT, AST and ALKP levels.
# (§5) Effects of ζ-Stat on athymic mice ovarian xenograph were tested. Twelve athymic female nude mice weighing between 20-25 g and more than 10 weeks of age were used. The mice were divided into two groups after TOV21G cells (CRL-11730, American Type Culture Collection) were implanted (A million cells/mouse flank in 0.2 ml of media). The first group was the control group (n=6), which received 100 μl of DPBS (21-031-CM, Corning Cellgro, VA). The second group (n=6) received 100 μl of 20 mg/kg of ζ-Stat dissolved in DPBS. The tumor volume was calculated using the formula: length×width×width×½. Three days after implantation of the cells, the tumors were treated as of day 0. The treatments were administered every other day subcutaneously intra-tumor and around the tumor site for […].
# ES-2 cells = assay: Proliferation of ES-2 cells treated with ζ-Stat (cellometer count, WST-1); assay type: cell-based; settings: 24, 48 and 72 hours, control DMSO
# Method: FIGS. 2A-2C. Proliferation curves for ES-2 cells treated with ζ-Stat. ES-2 cells were treated with ζ-Stat for 24, 48, and 72 hours. The control cells were treated with DMSO. (FIG. 2A) Treatments counted on a cellometer. (FIG. 2B) Standard curve for ES-2 cells in WST-1 reagent. (FIG. 2C) Treatments after 72 hours measured using WST-1 reagent.
# as §1
# TOV21G xenographs = assay: TOV21G xenograph tumor growth in athymic female nude mice; assay type: in vivo; settings: 20 mg/kg, every other day, subcutaneously intra-tumor and around the tumor site
# Method: as §4, §5
structure (smiles),measurement,setting,value
"O=S(=O)(O)c1cc(O)c2c(S(=O)(=O)O)cc(S(=O)(=O)O)cc2c1 [ζ-Stat, 8-hydroxynaphthalene-1,3,6-trisulfonic acid]",proliferation of TOV21G cells,TOV21G cells,decreased
same,expression of PKC-ι,PKC-ι,not the expression of PKC-ι
same,expression of PKC-ζ,PKC-ζ,knocks down the expression of PKC-ζ
same,expression of RhoA at the genomic level,RhoA,knocks down the expression of RhoA
same,expression of RhoA at the protein level,RhoA,knocks down the expression of RhoA
same,wound healing,CCOC cells,decreased wound healing
same,mouse body weight,[1]; athymic female mice treated with ζ-Stat,maintained
same,toxic effect,"[1]; mice, 20 mg/kg, after 30 days of treatment",did not have a toxic effect
same,proliferation of ES-2 cells,ES-2 cells,decreased
same,tumor growth,TOV21G xenographs,decreased; also recorded: reduced
